Laboratory results: paper PMC3286537 (Purinergic Signalling, 2011)
Where a chain is given by its changes, count along the chain named. Like-named read-outs stand apart in the source and are kept apart here.

What was measured:
[1] = target: T1, human adenosine A2BR mutant Y202S^5.58 (Homo sapiens, UniProt P29275, Y202S); experiment: Liquid yeast growth assay, mutant Y202S
T1 sequence (P29275 1-332 Y202S): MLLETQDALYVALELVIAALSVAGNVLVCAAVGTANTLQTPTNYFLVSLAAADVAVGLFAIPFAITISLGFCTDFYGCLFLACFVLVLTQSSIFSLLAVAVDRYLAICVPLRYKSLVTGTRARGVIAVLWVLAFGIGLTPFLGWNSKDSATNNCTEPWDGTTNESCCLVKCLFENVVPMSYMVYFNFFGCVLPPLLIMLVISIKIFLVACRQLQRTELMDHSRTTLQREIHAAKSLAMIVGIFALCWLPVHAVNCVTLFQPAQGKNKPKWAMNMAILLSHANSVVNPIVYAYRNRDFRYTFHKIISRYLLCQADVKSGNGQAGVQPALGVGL

[2] = system: A2BR mutant C167^EL2 to serine; details: C167^EL2 mutated to serine; cited from earlier work
[3] = target: T2, human adenosine A2BR mutant C167S^EL2 (Homo sapiens, UniProt P29275, C167S); experiment: Liquid yeast growth assay, mutant C167S
T2 sequence (P29275 1-332 C167S): T1 sequence (P29275 1-332 Y202S) with C167S, S202Y

[4] = system: other 11 mutant adenosine A2BRs; experiment: Solid yeast growth assay, the other 11 mutant receptors; type: cell-based, human; details: 10 μM ZM241385
[5] = target: T1, human adenosine A2BR mutant Y202S^5.58; experiment: Solid yeast growth assay, mutant Y202S; type: cell-based; details: inverse agonist response
hA2BR [6] = target: T3, hA2BR (Homo sapiens, UniProt P29275); details: CHO cell membranes expressing the hA2BR; cited from earlier work
T3 sequence (P29275 1-332): T1 sequence (P29275 1-332 Y202S) with S202Y

hA2BR [7] = target: T3, hA2BR; experiment: Saturation binding on whole yeast cells expressing the hA2BR; details: read-out: K D, yeast

N#Cc1c(N)nc(SCC(N)=O)c(C#N)c1-c1ccc(OCC2CC2)cc1 [BAY 60-6583, 2-[6-amino-3,5-dicyano-4-[4-(cyclopropylmethoxy)phenyl]pyridin-2-ylsulfanyl]acetamide]
fold increase in potency compared with wild type [1]: 10 fold
fold increase in potency [2]: 2.5 fold
fold increase in potency compared with wild type [3]: 2 fold

Nc1nc(NCCc2ccc(O)cc2)nc2nc(-c3ccco3)nn12 [ZM241385, 4-{2-[7-amino-2-(2-furyl)[1,2,4]triazolo-[2,3-a][1,3,5]triazin-5-yl-amino]ethyl}phenol]
effect on constitutive activity [4]: could be fully suppressed
effect on constitutive activity [5]: could be reduced to wild-type levels

CCCn1c(=O)[nH]c2nc(-c3ccc(S(=O)(=O)N4CCN(c5ccc(Cl)cc5)CC4)cc3)[nH]c2c1=O [[^3H]PSB-603]
Kd (hA2BR [6]): 0.4 ± 0.19 nM
Kd (hA2BR [7]): 0.81 ± 0.02 nM
